From ChEMBL document CHEMBL2169761, “Exploring the interactions of unsaturated glucuronides with influenza virus sialidase” (J Med Chem, 2012) come the findings set out here.

The first assay in a line: Inhibition of Influenza A virus sialidase N2 by fluorometric assay.
Broadly, the IC50 is the point on the concentration scale where inhibition reaches its midpoint. On to `CCC(CC)O[C@@H]1OC(C(=O)O)=C[C@H](OC(C)=O)[C@H]1NC(C)=O`, for which inhibition was half-maximal at 5.39 µM (IC50). This counts as single-digit micromolar.
Same read-out and setting: to `C=CCO[C@H]1C=C(C(=O)O)O[C@@H](OC(CC)CC)[C@@H]1NC(C)=O` belongs 212 µM; to `CCC(CC)O[C@@H]1OC(C(=O)O)=C[C@H](OC)[C@H]1NC(C)=O`, 1.45 µM; to `CCO[C@H]1C=C(C(=O)O)O[C@@H](OC(CC)CC)[C@@H]1NC(C)=O`, 28 µM.
Same read-out and setting: to `CCC(CC)O[C@@H]1OC(C(=O)O)=C[C@H](O)[C@H]1NC(C)=O` belongs 0.32 µM; to `CCO[C@H]1C=C(C(=O)O)O[C@@H]([C@H](O)[C@H](O)CO)[C@@H]1NC(C)=O`, 479 µM; to `CC(=O)N[C@H]1[C@H]([C@H](O)[C@H](O)CO)OC(C(=O)O)=C[C@@H]1N`, 0.68 µM.
`CC(=O)N[C@H]1[C@H]([C@H](O)[C@H](O)CO)OC(C(=O)O)=C[C@@H]1O` [NEU5AC2EN] had an IC50 of 10.5 µM.
The same measure, in the same setting: to `CC(=O)N[C@H]1[C@H]([C@H](O)[C@H](O)CO)OC(C(=O)O)=C[C@@H]1NC(=N)N` [ZANAMIVIR] belongs 0.012 µM.

Another assay in a line: Inhibition of Influenza A virus sialidase N2.
Consider `CCC(CC)O[C@@H]1OC(C(=O)O)=C[C@H](N)[C@H]1NC(C)=O`, for which the IC50 came to 0.77 µM.
Still for that read-out and setting: to `CCC(CC)O[C@@H]1C=C(C(=O)O)C[C@H](O)[C@H]1NC(C)=O` belongs 0.015 µM.
As a reminder, the Ki is the equilibrium dissociation constant of an inhibitor or competing ligand from its target. A low value points to tighter binding. For the molecule `C=C[C@H]1CC(C(=O)O)=C[C@@H](OC(C)C)[C@@H]1NC(C)=O`, the Ki was 0.045 µM. That is a double-digit nanomolar value.
In the case of `C/C=C\[C@@H]1C[C@H](C(=O)O)N[C@H]1[C@@H](NC(C)=O)[C@](C)(CCC)OC`, the affinity, expressed as Ki, was 0.0002 µM. This Ki is about 220-fold lower than that of the molecule before.
As to `CC(=O)N[C@H]1[C@H]([C@H](O)[C@H](O)CO)OC(C(=O)O)=C[C@@H]1O` [NEU5AC2EN], the half-maximal inhibitory concentration (IC50) came to 1.7 µM.
For the molecule `CC(=O)N[C@H]1[C@H]([C@H](O)[C@H](O)CO)OC(C(=O)O)=C[C@@H]1NC(=N)N` [ZANAMIVIR], the concentration for half-maximal inhibition (IC50) stood at 0.005 µM. Compared with the last molecule, the IC50 is about 340-fold lower.
